For data set [1] the following is noted: preclinical study; cited from earlier work.
Data set [2] deals with stress urinary incontinence. The conditions noted are these: clinical study; cited from earlier work.
Data set [3] relates to rat extensor digitorum longus muscle. The conditions noted are these: in vivo, electrical stimulation of the rat fibular nerve; cited from earlier work.
Data set [4] concerns external urethral sphincter of extracted rat urethra. Briefly: External urethral sphincter contractile response induced by transmural electrical stimulation using extracted rat urethra. The following applies: extracted rat urethra strips, 10 or 30 μmol/L, 15 minutes after addition, transmural electrical stimulation 20 V, 20 Hz; FIG. 1.
The test system of a further data set is SD female rats. Briefly: Reaction increasing urethra internal pressure induced by electrical stimulation of rat pudendal nerve. The following applies: anesthetized SD female rats, 3 or 10 mg/kg intravenously, about three minutes after administration; FIG. 2. Type of data set: in vivo. The protocol: Test to Evaluate Reinforcing Action of Compound A on Reaction Increasing Urethra Internal Pressure Induced by Electrical Stimulation of Rat Pudendal Nerve
SD female rats (Japan SLC, Inc.) having a body weight of 200-350 g were anesthetized with urethane (1.2 g/kg, sc; Sigma-Aldrich), and a catheter (PE-50; Becton Dickinson) was lodged in the jugular vein for administering the test substance. Laparotomies were performed, and the dome of the bladder was cut open to allow discharge of the urine in the bladder. A microchip pressure transducer catheter (3.5Fr; Millar Instruments) was inserted from the external urethral orifice toward the bladder to measure the urethra internal pressure. The rats were arranged prone, the back was cut open, and several left and right pudendal nerves were isolated and held in place with exciting electrodes. […] The average of the reactions increasing urethra internal pressure by electrical stimulation three times before administering the test substance was calculated as the level before administering the test substance, and the percentage of reaction increasing urethra internal pressure by electrical stimulation about three minutes after administering the test substance to the value before administering the test substance was calculated for each of the treatment groups.

For a further data set, the system named is rat diaphragm myofibrils. The conditions noted are these: cited from earlier work.
For another data set, the system named is rat diaphragm. The following applies: in vitro, transmural electrical stimulation; cited from earlier work.
Data set [5] concerns rat extensor digitorum longus muscle. The conditions noted are these: rat extensor digitorum longus muscle including a fast-muscle component; cited from earlier work.

Structures are written as SMILES.

Turning to `CNCCC(Oc1ccccc1OC)c1ccccc1` (stereo not drawn) [nisoxetine], in data set [1], the “incontinence induced by sneezing” value is reported as “improved incontinence induced by sneezing” and the urethra internal pressure entry was “increased urethra internal pressure”.

As to `CCOc1ccccc1O[C@@H](c1ccccc1)[C@@H]1CNCCO1` [(S,S)-reboxetine], in data set [2], the “efficacy on stress urinary incontinence” value is reported as “effective for stress urinary incontinence” and the urethral resistance result is “increased urethral resistance”.

Consider `NC(=O)c1ccn(-c2cnc(NC[C@]3(c4ncccc4F)C[C@H](F)C3)nc2)c1` [Compound A, 1-[2-({[trans-3-fluoro-1-(3-fluoropyridin-2-yl)cyclobutyl]methyl}amino)pyrimidin-5-yl]-1H-pyrrole-3-carboxamide], for which the “extensor digitorum longus muscle contractile response” value in data set [3] is given as “reinforcing extensor digitorum longus muscle contractile response”. Further, in data set [4], the “contractile response of the external urethral sphincter after adding test substance relative to before adding” value is “reinforced contractile response of the external urethral sphincter”. The “reaction increasing urethra internal pressure after administration relative to before administration” value with SD female rats was “reinforced a reaction increasing urethra internal pressure”. Besides, the “shift of concentration-response curve of intracellular calcium ions concentration and muscle tension” value was “shift the concentration-response curve of intracellular calcium ions concentration and muscle tension to the left” in the data set with rat diaphragm myofibrils; “shift the concentration-response curve of intracellular calcium ions concentration and muscle tension to the left” in data set [5]. For the same compound, the “contractile response of rat diaphragm” value with rat diaphragm is “reinforcing the contractile response of a rat diaphragm”.

In the case of `CNCC[C@H](Oc1cccc2ccccc12)c1cccs1` [duloxetine], in data set [2], the adverse drug reactions result is recorded as “undesirable adverse drug reactions such as suicide attempts were reported” and the “efficacy on stress urinary incontinence” value is reported as “effective on stress urinary incontinence”.

These data come from patent publication US9987279B2, “Pharmaceutical composition for prevention and/or treatment of urinary incontinence” (ASTELLAS PHARMA INC., priority 2014, dated 2018).
